Assay results: US20020177180A1, “pH-indicator based assay for selective enzymes” (ThermoGen, Inc., priority 1998, published 2002)

Assays:
Type in all cases: biochemical
ThermoGen esterases = experiment: Initial screening (pH indicator): esters as substrates of the ThermoGen esterases, statements for the esterases as a group; conditions: for estimated enantioselectivities with ThermoGen esterases (in words): ratio of initial rates of enantiomer pairs; for quality as substrate of the ThermoGen esterases (in words), enantiomer pairs: enantiomer pair library, Tables 8-12
Experimental: (§1) Initial screening measures the initial rate of hydrolysis of different esters. The rate of reaction was measured by monitoring the release of protons using a pH indicator, 4-nitrophenol. In this assay, the yellow color of the phenoxide disappears as the reaction proceeds. The amount of ester hydrolyzed can be measured quantitatively, as is known in the art.
(§2) To survey the substrate selectivity of the ThermoGen esterases, the ability of the enzymes to hydrolyze thirty-one different commercially-available esters, Scheme 1 (FIG. 9, Table 6).
To evaluate the potential of the ThermoGen esterases for enantioselective reactions, the initial rates of hydrolysis of the esterases were measured using twenty-one pairs of enantiomers, Scheme 2, FIG. 10 and Tables 8-12. The ratio of these initial rates is an estimated enantioselectivity.

esterase E014 = experiment: Initial screening of ThermoGen esterases toward esters 1-31 (pH indicator), specific activity; conditions: 1 mM substrate, pH 7.2, 7 vol % acetonitrile, 25° C.
Experimental: as §1, §2

esterase E006 = experiment: as above; conditions: 1 mM substrate, pH 7.2, 7 vol % acetonitrile, 25° C.
Experimental: as §1, §2

esterase E016 = experiment: as above; conditions: 1 mM substrate, pH 7.2, 7 vol % acetonitrile, 25° C.
Experimental: as §1, §2

esterase E015 = experiment: as above; conditions: 1 mM substrate, pH 7.2, 7 vol % acetonitrile, 25° C.
Experimental: as §1, §2

esterase E020 = experiment: as above; conditions: 1 mM substrate, pH 7.2, 7 vol % acetonitrile, 25° C.
Experimental: as §1, §2

esterase E012 = experiment: as above; conditions: 1 mM substrate, pH 7.2, 7 vol % acetonitrile, 25° C.
Experimental: as §1, §2

esterase E011 = experiment: as above; conditions: 1 mM substrate, pH 7.2, 7 vol % acetonitrile, 25° C.
Experimental: as §1

COC(=O)C(C)CBr (single isomer, unassigned) [Substrate 44]
estimated enantioselectivities with ThermoGen esterases (in words) (ThermoGen esterases): estimated enantioselectivities above two with several esterases

COC(=O)CC(C)O (single isomer, unassigned) [Substrate 40]
quality as substrate of the ThermoGen esterases (in words), enantiomer pairs (ThermoGen esterases): poorest substrates

CCOC(=O)C1CCC(=O)N1 (single isomer, unassigned) [Substrate 48]
quality as substrate of the ThermoGen esterases (in words), enantiomer pairs (ThermoGen esterases): poorest substrates

CC1(COC(=O)c2ccc([N+](=O)[O-])cc2)CO1 (single isomer, unassigned) [Substrate 34]
estimated enantioselectivities with ThermoGen esterases (in words) (ThermoGen esterases): estimated enantioselectivities above two with several esterases

CCCCCCCC(=O)OCC1COC(C)(C)O1 (single isomer, unassigned) [Substrate 35]
quality as substrate of the ThermoGen esterases (in words), enantiomer pairs (ThermoGen esterases): best substrates

COC(=O)C(C)CO (single isomer, unassigned) [Substrate 39]
quality as substrate of the ThermoGen esterases (in words), enantiomer pairs (ThermoGen esterases): poorest substrates

CCCC(=O)OC(C)c1ccccc1 (single isomer, unassigned) [Substrate 38]
estimated enantioselectivities with ThermoGen esterases (in words) (ThermoGen esterases): higher estimated enantioselectivities with most ThermoGen esterases

COC(=O)C(C)Cl (single isomer, unassigned) [Substrate 45]
estimated enantioselectivities with ThermoGen esterases (in words) (ThermoGen esterases): higher estimated enantioselectivities with most ThermoGen esterases

COC(=O)C(O)c1ccccc1 (single isomer, unassigned) [Substrate 46]
quality as substrate of the ThermoGen esterases (in words), enantiomer pairs (ThermoGen esterases): poorest substrates

O=C(OCC1CO1)c1ccc([N+](=O)[O-])cc1 (single isomer, unassigned) [Substrate 33]
quality as substrate of the ThermoGen esterases (in words), enantiomer pairs (ThermoGen esterases): best substrates

COC(=O)C1COC(C)(C)O1 (single isomer, unassigned) [Substrate 43]
estimated enantioselectivities with ThermoGen esterases (in words) (ThermoGen esterases): estimated enantioselectivities above two with several esterases

CC(=O)OC1CC(C)CCC1C(C)C (stereo not shown) [Substrate 36]
estimated enantioselectivities with ThermoGen esterases (in words) (ThermoGen esterases): estimated enantioselectivities above two with several esterases

C=COC(=O)CCCCC [Substrate 4]
Specific activity, esterase E014 (esterase E014): 540 mmol ester hydrolyzed/min/mg protein | Specific activity, esterase E006 (esterase E006): 1700 mmol ester hydrolyzed/min/mg protein | Specific activity, esterase E016 (esterase E016): 1300 mmol ester hydrolyzed/min/mg protein | Specific activity, esterase E015 (esterase E015): 1100 mmol ester hydrolyzed/min/mg protein | Specific activity, esterase E020 (esterase E020): 3000 mmol ester hydrolyzed/min/mg protein | Specific activity, esterase E012 (esterase E012): 48 mmol ester hydrolyzed/min/mg protein | Specific activity, esterase E011 (esterase E011): 680 mmol ester hydrolyzed/min/mg protein

CC1(C)COC(=O)C1O (single isomer, unassigned) [Substrate 52]
quality as substrate of the ThermoGen esterases (in words), enantiomer pairs (ThermoGen esterases): poorest substrates

C=COC(=O)CCCCCCCCCCCCC [Substrate 7]
Specific activity, esterase E014 (esterase E014): 0.81 mmol ester hydrolyzed/min/mg protein | Specific activity, esterase E006 (esterase E006): 0.61 mmol ester hydrolyzed/min/mg protein | Specific activity, esterase E016 (esterase E016): 21 mmol ester hydrolyzed/min/mg protein | Specific activity, esterase E015 (esterase E015): 3.0 mmol ester hydrolyzed/min/mg protein | Specific activity, esterase E020 (esterase E020): 1.0 mmol ester hydrolyzed/min/mg protein | Specific activity, esterase E012 (esterase E012): 7.6 mmol ester hydrolyzed/min/mg protein | Specific activity, esterase E011 (esterase E011): 0.45 mmol ester hydrolyzed/min/mg protein

CCC(C)OC(C)=O (stereo not shown) [Substrate 28]
Specific activity, esterase E014 (esterase E014): <0.1 mmol ester hydrolyzed/min/mg protein | Specific activity, esterase E006 (esterase E006): 0.16 mmol ester hydrolyzed/min/mg protein | Specific activity, esterase E016 (esterase E016): <2 mmol ester hydrolyzed/min/mg protein | Specific activity, esterase E015 (esterase E015): 0.29 mmol ester hydrolyzed/min/mg protein | Specific activity, esterase E020 (esterase E020): 2.1 mmol ester hydrolyzed/min/mg protein | Specific activity, esterase E012 (esterase E012): <2 mmol ester hydrolyzed/min/mg protein | Specific activity, esterase E011 (esterase E011): 0.19 mmol ester hydrolyzed/min/mg protein
